Experimental data published in PubChem BioAssay (NCI).
“And” between values parts separate entries of the source, which are not always exact repeats. Equal entries are not always repeated.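 In this assay, cells in 96-well plates receive the compound at five concentrations for 48 hours. Endpoints are linearly interpolated between the surrounding concentrations. Here, GI50 denotes the concentration required for 50% inhibition of growth. Definition used: TGI = concentration required for complete inhibition of growth.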

Columns and labels:
Assay in all cases: NCI-60 cell line screen, 48 h
PC-3 prostate = test system: PC-3 prostate
U251 CNS = test system: U251 CNS
SK-OV-3 ovarian = test system: SK-OV-3 ovarian
K-562 leukemia = test system: K-562 leukemia
OVCAR-8 ovarian = test system: OVCAR-8 ovarian
NCI-H226 lung = test system: NCI-H226 lung
A498 renal = test system: A498 renal
ACHN renal = test system: ACHN renal
SR leukemia = test system: SR leukemia
NCI-H522 lung = test system: NCI-H522 lung

Row | Compound | GI50 (PC-3 prostate) | TGI (PC-3 prostate) | GI50 (U251 CNS) | TGI (U251 CNS) | GI50 (SK-OV-3 ovarian) | TGI (SK-OV-3 ovarian) | GI50 (K-562 leukemia) | TGI (K-562 leukemia) | GI50 (OVCAR-8 ovarian) | TGI (OVCAR-8 ovarian) | GI50 (NCI-H226 lung) | TGI (NCI-H226 lung) | GI50 (A498 renal) | TGI (A498 renal) | GI50 (ACHN renal) | TGI (ACHN renal) | GI50 (SR leukemia) | TGI (SR leukemia) | GI50 (NCI-H522 lung) | TGI (NCI-H522 lung)
1 | CC(C)=CCNc1ncnc2c1ncn2C1OC(CO)C(O)C1O (stereo unspecified) | 0.616 µM | 31 µM | 36.2 µM | > 1000 µM | 1.75 µM | 33.5 µM | 0.703 µM | > 380 µM | 0.496 µM | 3.34 µM | 2.6 µM | 7.1 µM | 0.405 µM | 1.51 µM | 0.987 µM | > 526 µM | 0.799 µM | > 334 µM |  | 
2 | N#Cc1c(NN)n(C2OC(CO)C(O)C2O)c2ncnc(N)c12 (stereo unspecified) | 0.0778 µM |  | 0.0919 µM | > 100 µM | 0.198 µM | 0.722 µM | 0.0181 µM | 0.176 µM | 0.257 µM | 7.56 µM | 0.496 µM | 2.91 µM |  |  | 0.0385 µM |  | 0.0272 µM | 0.0815 µM | 0.198 µM | 0.469 µM
3 | C=C1CC[C@@H]2[C@](C)(COC(C)=O)[C@H](OC(C)=O)CC[C@@]2(C)[C@@H]1CC(Sc1ccccc1)C1=CCOC1=O (stereo partly specified) | 1.84 µM | 10.1 µM | 1.56 µM | 2.96 µM | 4.44 µM | 16.8 µM | 0.699 µM | 3.69 µM | 1.46 µM | 4.7 µM | 2.3 µM | 5.98 µM | 2.3 µM | 14 µM | 1.34 µM | 2.84 µM | 0.553 µM | 3.66 µM | 1.35 µM | 2.98 µM
4 | CCN(CC)CCC(CNc1ccnc2cc(Cl)ccc12)c1ccc(OC)cc1 (stereo unspecified) | 19.5 µM and 9.85 µM | 76.3 µM and > 100 µM | 4.91 µM and 3.52 µM | 17.2 µM and 11.5 µM | 13.1 µM and 14.1 µM | 33.4 µM and 46 µM | 1.79 µM and 1.19 µM | 5.76 µM and 4.14 µM | 5.76 µM and 4.78 µM | 27.2 µM and 19.3 µM | 4.14 µM and 4.92 µM | 17.3 µM and 28.4 µM | 3.82 µM and 3.49 µM | 13.4 µM and 14.1 µM | 5.24 µM and 2.77 µM | 19.1 µM and 9.6 µM | 2.31 µM and 2.04 µM | 8.35 µM and 7.34 µM | 3.29 µM and 2.16 µM | 13.1 µM and 8.47 µM
5 | COc1cc(N(CCC#N)CCC#N)ccc1/C(N=Nc1ccc([N+](=O)[O-])cc1)=N/NC(=O)c1cc(Br)ccc1O | 37 µg/mL | > 150 µg/mL | 57.3 µg/mL | > 150 µg/mL | 37.3 µg/mL | > 150 µg/mL | 63.1 µg/mL | > 150 µg/mL | 52.8 µg/mL | > 150 µg/mL | 5.47 µg/mL | 64.3 µg/mL | 86.6 µg/mL | > 150 µg/mL | 39.6 µg/mL | 131 µg/mL | 44.8 µg/mL | > 150 µg/mL | 53.4 µg/mL | > 150 µg/mL
6 | CC(=O)c1cccc(NC(=O)C(=O)NNc2n[nH]c(=S)n2N)c1 |  | 23 µM |  | 12 µM |  | 43.1 µM |  | 27.6 µM |  | 24.1 µM |  | 20.1 µM |  | 37.7 µM |  | 19.7 µM |  | 16.1 µM |  | 21 µM
7 | Cc1cc(I)cc(CN(C)CCCN2CCCCCCC2)c1O | 15.8 µM | 32.7 µM | 15 µM | 29.2 µM | 18.7 µM | 35.9 µM | 2.46 µM | 23.8 µM | 19.8 µM | 43.4 µM | 16.3 µM | 35 µM | 17.2 µM | 32.9 µM | 18.1 µM | 32.4 µM | 2.11 µM | 14.6 µM | 19.3 µM | 38.4 µM
8 | Cn1c2ccccc2c2c3c(c4c5cc(Br)ccc5n(C)c4c21)C(=O)N(O)C3=O | 0.497 µM | > 100 µM | 0.0499 µM | 0.489 µM |  |  | 0.197 µM | > 100 µM | 0.113 µM | > 100 µM |  |  |  |  | 0.0346 µM | 0.124 µM | 0.0156 µM | 0.584 µM | 0.167 µM | > 100 µM
9 | COc1ccc(-n2cc(-c3cc(OC)c(OC)c(OC)c3)c(C(=O)C(F)(F)F)c2C)cc1 | 9.01 µM | > 100 µM | 63.4 µM | > 100 µM | > 100 µM | > 100 µM | 22 µM | > 100 µM | > 100 µM | > 100 µM | > 100 µM | > 100 µM | 6.4 µM | > 100 µM | 54.6 µM | > 100 µM | 4.54 µM | > 100 µM | 20 µM | > 100 µM
10 | O=C(O)CCC(=O)c1ccc[nH]1 |  | > 100 µM |  | > 100 µM |  | > 100 µM |  | > 100 µM |  | > 100 µM |  | > 100 µM |  | > 100 µM |  | > 100 µM |  | > 100 µM |  | > 100 µM
11 | CCN1CCN(C(c2ccc(C(F)(F)F)cc2)c2ccc3cccnc3c2O)CC1 (stereo unspecified) | 0.361 µM | 17.6 µM | 0.658 µM | 11.4 µM | 3.84 µM | 16.8 µM | 3.49 µM | 14.6 µM | 1.85 µM | 13.5 µM | 3.09 µM | 13.7 µM | 2.31 µM | 14.1 µM | 3.04 µM | 11.2 µM | 0.835 µM | 11 µM | 5.01 µM | 18 µM
12 | CCCCCCCCCCCCOC1C(C(COC2OC(C3COC(C)(C)O3)C3OC(C)(C)OC23)NC(=O)Nc2ccc(C(=O)O)cc2)OC2OC(C)(C)OC21 (stereo unspecified) | 2.6 µM | 7.58 µM | 3.3 µM | 11.1 µM | 11.7 µM | 24 µM | 3.79 µM | > 100 µM | 3.13 µM | 12 µM | 3.45 µM | 19.2 µM | 2.48 µM | 8.53 µM | 3.56 µM | 12.2 µM |  |  | 2.56 µM | 6.93 µM
13 | CNC(=O)N(C)N=NCCCl |  | > 100 µM |  | > 100 µM |  | > 100 µM |  | > 100 µM |  | > 100 µM |  | > 100 µM |  | > 100 µM |  | > 100 µM |  | > 100 µM |  | > 100 µM
14 | Cn1nc(N)c2cc([C@@H]3Nc4ccc5[nH]ncc5c4[C@H]4C5CCC(C5)[C@@H]34)ccc21 (stereo partly specified) | 0.418 µM | 19.8 µM | 0.618 µM | 23.2 µM | 1.16 µM | 69.1 µM | 0.324 µM | > 100 µM | 0.979 µM | > 88.2 µM | 1.14 µM | 23.5 µM | 0.225 µM | 1.15 µM | 0.593 µM | 41.1 µM | 0.426 µM | > 100 µM | 0.474 µM | 24 µM
